This is an account of results in US6534080B2, “Method for administering camptothecins via injection of pharmaceutical composition comprising coated particles of a camptothecin” (priority 2001, dated 2003).

Each structure is given as a SMILES string.

The conditions of series [1]: human plasma, pH 7.4, 37° C.; cited from earlier work.
The conditions of series [2]: whole blood; cited from earlier work.
Series [3] has as its system A375 human melanoma xenografts. The series can be described thus: A375 human melanoma xenograft study 1 (tumor growth delay, toxicity). As to conditions: for share of mice with CR responses: q3d×4. (In general: A xenograft is tissue or cells of one species grown in another, often human tumour cells in immunodeficient mice.)
Text: The following study evaluates two intravenous formulations according to the present invention against human tumor xenografts in athymic nude mice. The study used the A375 human melanoma xenograft model to compare the in vivo antitumor efficacy of I.V. 9-nitro-camptothecin, in vehicles containing IDD-P which provides a particulate suspension of 9-nitro-camptothecin, and IDD-D which provides a droplet suspension of 9-nitro-camptothecin, to the efficacy of oral 9-nitro-camptothecin and intraperitoneal CAMPTOSAR®, HYCAMTIN®, and DTIC®.
In order to assess antitumor efficacy, groups of athymic nude mice (n=10) bearing ˜72-mg A375 melanomas were treated intravenously on the 5/2/5 schedule with 9-nitro-camptothecin in IDD-P at 3.0 mg/kg or 1.5 mg/kg and 9-nitro-camptothecin in IDD-D at 2.0 mg/kg or 1.0 mg/kg.
Husbandry: Female nude mice were 16 weeks of age (NCR-nufBr; Taconic Farms) for the A375 study. The mice were fed ad libitum water (reverse osmosis, 1 ppm Cl) and autoclaved Prolab NIH-31 M/5% Rodent Diet consisting of 18% protein, 5% fat, 6% fiber, and 8% ash. Mice were housed in static microisolators on a 12-hour light cycle at 21-22° C. (70-72° F.) and 40%-60% humidity.
Tumor Implantation: An A375 melanoma fragment (1 mm 3 ) was implanted subcutaneously in the flank of each nude mouse. When the tumors reached the 60-112 mg size range, the mice were sorted into treatment groups (on Day 1) such that the group mean tumor sizes ranged from 71.3 mg-72.5 mg. Estimated tumor weight was calculated using the formula: [formula]
Drug Formulations: IDD-P with a mean particle size of 0.07-0.06 mm and IDD-D with a mean particle size of 0.15 mm were prepared for the study by RTP Pharma Inc. For this, the 9-nitro-camptothecin suspensions were diluted with water and vehicle to provide doses of 3 mg/kg and 1.5 mg/kg in 33% IDD-P, and doses of 2 mg/kg and 1 mg/kg in 100% and 50% IDD-D, respectively. After dilution, 9-nitro-camptothecin suspensions were mixed thoroughly by gentle agitation and stored at 2-8° C. For its oral formulation, 9-nitro-camptothecin was dissolved in DMA (N,N-dimethylacetamide, SIGMA) and diluted with D5W to yield a final DMA concentration of 3%. CAMPTOSAR®, DTIC®, and HYCAMTIN® were obtained as the marketed drugs and solutions were prepared fresh on the day of dosing. CAMPTOSAR® (irinotecan, Pharmacia & Upjohn Company, 20 mg/ml) and DTIC® (dacarbazine, Bayer Corporation, 20 mg/ml) were diluted with D5W. HYCAMTIN® (topotecan, SmithKlein Beecham) was reconstituted with water at 1 mg/ml.
Treatments: Volumes of 0.20 ml per 20-g mouse, body-weight adjusted, were administered once daily. Tumor-bearing athymic nude mice were matched on Day 1 into 13 groups of ten animals and drug administration was initiated. The I.V. formulations of 9-nitro-camptothecin were given once daily on a 5/2/5 schedule as shown in the protocol summary shown in FIG. 4. Oral 9-nitro-camptothecin doses were given on a q3d×4 schedule (Days 1, 4, 8, and 11). Three reference drugs were administered I.P.: CAMPTOSAR® was given in three doses at weekly intervals (qwk×3); HYCAMTIN® was given in four doses at four-day intervals (q4d×4); and DTIC® was given in five consecutive daily doses (qd×5). The tumor growth control group for these reference treatments received no treatment (Group 1). The 9-nitro-camptothecin vehicle: 33.3% IDD-P, 100% IDD-D, and 3% DMA, was administered to vehicle control Groups 2-4, respectively.
Tumor Growth Endpoint: The tumor growth delay (TGD) method was used to assess efficacy. Tumor dimensions were measured twice weekly until the experiment was terminated on Day 62.
The target of series [4] is human serum albumin (HSA) (Homo sapiens, UniProt P02768). As to conditions: PBS at pH 7.4; cited from earlier work.
Where [5] appears, read: 2.0 mg/kg p.o., q3d×4, Group 13, Day 62.
[6] abbreviates: 4.0 mg/kg p.o., q3d×4, Group 12, Day 62.

Sequence of human serum albumin (HSA) (P02768 25-609): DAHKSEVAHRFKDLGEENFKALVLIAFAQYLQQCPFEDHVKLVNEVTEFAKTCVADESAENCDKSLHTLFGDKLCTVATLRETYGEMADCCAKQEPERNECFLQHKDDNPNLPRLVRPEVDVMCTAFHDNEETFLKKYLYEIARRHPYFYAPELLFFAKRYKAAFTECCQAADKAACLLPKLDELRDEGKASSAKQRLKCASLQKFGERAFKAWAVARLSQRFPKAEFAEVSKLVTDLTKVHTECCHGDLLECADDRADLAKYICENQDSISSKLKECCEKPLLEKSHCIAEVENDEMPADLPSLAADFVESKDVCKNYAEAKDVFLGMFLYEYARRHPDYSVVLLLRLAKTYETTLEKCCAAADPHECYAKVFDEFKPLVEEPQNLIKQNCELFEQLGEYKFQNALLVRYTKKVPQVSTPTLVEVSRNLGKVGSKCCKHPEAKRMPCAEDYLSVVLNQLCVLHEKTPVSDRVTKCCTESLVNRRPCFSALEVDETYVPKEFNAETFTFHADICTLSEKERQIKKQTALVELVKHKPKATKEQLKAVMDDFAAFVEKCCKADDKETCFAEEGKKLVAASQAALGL

As to `CC[C@@]1(O)C(=O)OCc2c1cc1n(c2=O)Cc2cc3ccccc3nc2-1` [camptothecin, 20(S)-camptothecin], the “half-life of α-hydroxy lactone ring opening” value in series [1] is 11 min. Moreover, in series [2], the “half-life of α-hydroxy lactone” value is 22 min.

As for `CCc1c2c(nc3ccc(OC(=O)N4CCC(N5CCCCC5)CC4)cc13)-c1cc3c(c(=O)n1C2)COC(=O)[C@]3(O)CC` [CAMPTOSAR®, irinotecan], the CR responses result in series [3] (100 mg/kg I.P., qwk×3, Group 5, Day 62) was “single and one”.

`CN(C)/N=N/c1[nH]cnc1C(N)=O` [DTIC®, dacarbazine]: the toxic deaths result in series [3] (150 mg/kg I.P., qd×5, Group 7, n=10) is “one and One”.

Turning to `CC[C@@]1(O)C(=O)OCc2c1cc1n(c2=O)Cc2cc3c(CN(C)C)c(O)ccc3nc2-1` [HYCAMTIN®, topotecan], the CR responses entry in series [3] (10 mg/kg I.P., q4d×4, Group 6, Day 62) was “single and one”.

Regarding `CC[C@@](O)(C(=O)O)c1cc2n(c(=O)c1CO)Cc1cc3ccccc3nc1-2` [carboxylate form of camptothecin], in series [4], the “affinity for HSA of carboxylate form relative to α-hydroxy lactone form” value is 150 fold.

In the case of `CC[C@@]1(O)C(=O)OCc2c1cc1n(c2=O)Cc2cc3c([N+](=O)[O-])cccc3nc2-1` [9-nitro-camptothecin in 3% DMA, 9-nitro-20(S)-camptothecin], the “share of mice with CR responses” value in series [3] (2 mg/kg p.o.) and in series [3] (4 mg/kg p.o.) was 40% each time. For the same molecule, the CR responses in series [3] (setting [5]) and in series [3] (setting [6]) was 4 in each case. Also, the “PR responses (printed RP)” value in series [3] (setting [5]) was determined as 1. Also, the SD/PD responses in series [3] (setting [5]) came to 2; in series [3] (setting [6]) it was 3. Further, the 62-day survivors result is listed as “seven” in series [3] (2.0 mg/kg p.o., q3d×4, Group 13, n=10) and “seven” in series [3] (4.0 mg/kg p.o., q3d×4, Group 12, n=10).
